For assay [1], the system named is human stomach cancer cell line SNU-16 (FGFR2 gene amplification). The assay is described as follows: SNU-16 growth inhibition assay. Format: cell-based. The conditions noted are these: Homo sapiens, SNU-16, 72 h. The procedure: In this assay, the growth inhibitory activity of a test substance in a human stomach cancer cell line harboring FGFR2 gene amplification is measured.
Then, 10 μL of Cell Counting Kit-8 (Dojindo Laboratories, CK04) was added to each well, and the resultant was incubated for 1 to 2 hours in a 5% CO2 incubator (37° C.) to cause a color reaction. The absorbance value was measured with ENVISION™ (PerkinElmer Co., Ltd.) at 450 nm.

In assay [2] the test system is normal human umbilical vein endothelial cells (HUVEC). The assay is described as follows: HUVEC growth inhibition assay (VEGF-induced). The format is cell-based. The note with it: Homo sapiens, HUVEC, 72 h, read-out: HUVEC (IC50 (nM)), growth in the presence of VEGF 10 ng/mL, 3 days. Here is the method:
The absorbance value was measured with ENVISION™ (PerkinElmer Co., Ltd.) at 450 nm. The absorbance values of the wells without adding the test substance but with VEGF addition was defined as 100% and the absorbance values of the wells with neither the test substance nor VEGF addition was defined as 0%.

The mark [3] stands for this setting: read-out: SNU-16 (IC50 (nM)), cell growth, 3 days, Cell Counting Kit-8.

The text below walks through data of patent US8933099B2, “Monocyclic pyridine derivative” (Eisai R&D Management Co., Ltd., priority 2013, dated 2015).

SMILES strings stand for the structures. Where two headings read alike, the source gives them in different places.

As for `CNC(=O)n1ccc2cc(Oc3ccnc(NC(=O)c4ccc(C5CCN(CCCF)CC5)cc4)c3)c(OC)cc21` [Example 5, 5-((2-(4-(1-(3-Fluoropropyl)piperidin-4-yl)benzamide)pyridin-4-yl)oxy)-6-methoxy-N-methyl-1H-indole-1-carboxamide], the IC50 was 13.4 nM in assay [1] (setting [3]) and 387 nM in assay [2].
In the same order, the values of `CNC(=O)n1ccc2cc(Oc3ccnc(NC(=O)c4ccc(C5CCNCC5F)cc4)c3)c(OC)cc21` (stereo not drawn) [Example 6, 5-((2-(4-(3-Fluoropiperidin-4-yl)benzamide)pyridin-4-yl)oxy)-6-methoxy-N-methyl-1H-indole-1-carboxamide] are 9.1 nM and 180 nM.
In the same order, the values of `CNC(=O)n1ccc2cc(Oc3ccnc(NC(=O)c4ccc(C5(F)CCNCC5)cc4)c3)c(OC)cc21` [Example 7, 5-((2-(4-(4-Fluoropiperidin-4-yl)benzamide)pyridin-4-yl)oxy)-6-methoxy-N-methyl-1H-indole-1-carboxamide] are 9.6 nM and 205 nM.
With `CNC(=O)n1ccc2cc(Oc3ccnc(NC(=O)c4ccc(N5CCC(N6CCCC6)CC5)cc4)c3)c(OC)cc21` [Example 8, 6-Methoxy-N-methyl-5-((2-(4-(4-(pyrrolidin-1-yl)piperidin-1-yl)benzamide)pyridin-4-yl)oxy)-1H-indole-1-carboxamide], the IC50 was found to be 15.4 nM in assay [1] (setting [3]) and 140 nM in assay [2].
In the same order, the values of `CNC(=O)n1ccc2cc(Oc3ccnc(NC(=O)c4ccc(CN5C[C@H](OC)[C@@H](O)C5)cc4)c3)c(OC)cc21` [Example 10, 5-((2-(4-(((3S,4S)-3-Hydroxy-4-methoxypyrrolidin-1-yl)methyl)benzamide)pyridin-4-yl)oxy)-6-methoxy-N-methyl-1,4-indole-1-carboxamide] are 28.7 nM and 350 nM.
Consider `CCN1CCN(CCc2ccc(C(=O)Nc3cc(Oc4cc5ccn(C(=O)NC)c5cc4OC)ccn3)cc2)CC1` [Example 11, 5-((2-(4-(2-(4-Ethylpiperazin-1-yl)ethyl)benzamide)pyridin-4-yl)oxy)-6-methoxy-N-methyl-1H-indole-1-carboxamide], for which the values for the IC50 in assay [1] (setting [3]) and in assay [2] were 14.5 nM and 132 nM, respectively.
Regarding `CNC(=O)n1ccc2cc(Oc3ccnc(NC(=O)c4ccc(OCCN5CCC(O)CC5)cc4)c3)c(OC)cc21` [Example 12, 5-((2-(4-(2-(4-Hydroxypiperidin-1-yl)ethoxy)benzamide)pyridin-4-yl)oxy)-6-methoxy-N-methyl-1H-indole-1-carboxamide], the figures for the IC50 in assay [1] (setting [3]) and in assay [2] were 13 nM and 141 nM, respectively.
In the same order, the values of `CCN1CCC(n2cc(C(=O)Nc3cc(Oc4cc5ccn(C(=O)NC)c5cc4OC)ccn3)cn2)CC1` [Example 13, 5-((2-(1-(1-Ethylpiperidin-4-yl)-1H-pyrazole-4-carboxamide)pyridin-4-yl)oxy)-6-methoxy-N-methyl-1H-indole-1-carboxamide] are 10.9 nM and 396 nM.
For the compound `CNC(=O)n1ccc2cc(Oc3ccnc(NC(=O)c4ccc(OC5CCN(CCO)CC5)cc4)c3)c(OC)cc21` [Example 14, 5-((2-(4-((1-(2-Hydroxyethyl)piperidin-4-yl)oxy)benzamide)pyridin-4-yl)oxy)-6-methoxy-N-methyl-1H-indole-1-carboxamide], the results for the IC50 in assay [1] (setting [3]) and in assay [2] were 9.5 nM and 169 nM, respectively.
Turning to `CCOc1cc2c(ccn2C(=O)NC)cc1Oc1ccnc(NC(=O)c2ccc(C3CCNCC3)cc2)c1` [Example 15, 6-Ethoxy-N-methyl-5-((2-(4-(piperidin-4-yl)benzamide)pyridin-4-yl)oxy)-1H-indole-1-carboxamide], the IC50 in assay [1] (read-out: SNU-16 (IC50 (nM))) was found to be 9.7 nM.
Take `CNC(=O)n1ccc2cc(Oc3ccnc(NC(=O)c4ccc(C5CCNCC5)cc4)c3)c(OC(C)C)cc21` [Example 17, 6-Isopropoxy-N-methyl-5-((2-(4-(piperidin-4-yl)benzamide)pyridin-4-yl)oxy)-1H-indole-1-carboxamide]: the IC50 in assay [1] (read-out: SNU-16 (IC50 (nM))) was determined as 17.7 nM.
As for `CNC(=O)n1ccc2cc(Oc3ccnc(NC(=O)c4ccc(C5CCN(C[C@@H](C)O)CC5)cc4)c3)c(OC(C)C)cc21` [Example 18, (R)-5-((2-(4-(1-(2-Hydroxypropyl)piperidin-4-yl)benzamide)pyridin-4-yl)oxy)-6-isopropoxy-N-methyl-1H-indole-1-carboxamide], the IC50 in assay [1] (setting [3]) was 13.9 nM; in assay [2], 180 nM.
As for `CNC(=O)n1ccc2cc(Oc3ccnc(NC(=O)c4ccc(CN5CCC(O)CC5)cc4)c3)c(OC(F)F)cc21` [Example 19, 6-(Difluoromethoxy)-5-((2-(4-((4-hydroxypiperidin-1-yl)methyl)benzamide)pyridin-4-yl)oxy)-N-methyl-1H-indole-1-carboxamide], the IC50 in assay [1] (setting [3]) is 14.1 nM; in assay [2], 151 nM.
For `CNC(=O)n1ccc2cc(Oc3ccnc(NC(=O)c4ccc(C5CCNCC5)cc4)c3)c(OCCOC)cc21` [Example 20, 6-(2-Methoxyethoxy)-N-methyl-5-((2-(4-(piperidin-4-yl)benzamide)pyridin-4-yl)oxy)-1H-indole-1-carboxamide], the IC50 in assay [1] (read-out: SNU-16 (IC50 (nM))) was 7.5 nM.
Turning to `CCOCCOc1cc2c(ccn2C(=O)NC)cc1Oc1ccnc(NC(=O)c2ccc(C3CCNCC3)cc2)c1` [Example 24, 6-(2-Ethoxyethoxy)-N-methyl-5-((2-(4-(piperidin-4-yl)benzamide)pyridin-4-yl)oxy)-1H-indole-1-carboxamide], the IC50 in assay [1] (read-out: SNU-16 (IC50 (nM))) came out at 6.2 nM.
Turning to `CCOCCOc1cc2c(ccn2C(=O)NC)cc1Oc1ccnc(NC(=O)c2ccc(CN3C[C@@H](C)N[C@@H](C)C3)cc2)c1` [Example 30, 5-((2-(4-(((3S,5R)-3,5-Dimethylpiperazin-1-yl)methyl)benzamide)pyridin-4-yl)oxy)-6-(2-ethoxyethoxy)-N-methyl-1H-indole-1-carboxamide], the IC50 in assay [2] came out at 566 nM.
On to `CCOc1cc2c(ccn2C(=O)NC)cc1Oc1ccnc(NC(=O)c2ccc(C3CCN(CC(C)(C)O)CC3)cc2)c1` [Example 58], for which the IC50 in assay [1] (read-out: SNU-16 (IC50 (nM))) worked out at 10 nM.
`CNC(=O)n1ccc2cc(Oc3ccnc(NC(=O)c4ccc(C5CCN(C)CC5)cc4)c3)c(OC(C)C)cc21` [Example 69]: the IC50 in assay [1] (read-out: SNU-16 (IC50 (nM))) came out at 17.5 nM.
Same read-out and setting: with `CNC(=O)n1ccc2cc(Oc3ccnc(NC(=O)c4ccc(C5CN(CC(C)(C)O)C5)cc4)c3)c(OCCOC)cc21` [Example 79] the figure was 4.6 nM.
With `CNC(=O)n1ccc2cc(Oc3ccnc(NC(=O)c4ccc(CN5CCC[C@H]5CO)s4)c3)c(OCCOC)cc21` [Example 83], the IC50 in assay [2] stood at 310 nM.
As to `CNC(=O)n1ccc2cc(Oc3ccnc(NC(=O)c4ccc(C5CN(C)C5)cc4)c3)c(OCCOC)cc21` [Example 87], the IC50 in assay [1] (read-out: SNU-16 (IC50 (nM))) is 3.9 nM.
On the same count and under the same terms, with `CNC(=O)n1ccc2cc(Oc3ccnc(NC(=O)c4ccc(C5CN(C(C)C)C5)cc4)c3)c(OCCOC)cc21` [Example 88] the figure was 6.9 nM; with `CCOCCOc1cc2c(ccn2C(=O)NC)cc1Oc1ccnc(NC(=O)c2ccc(C3CN(CC(C)(C)O)C3)cc2)c1` [Example 95], 5.1 nM; with `CCOCCOc1cc2c(ccn2C(=O)NC)cc1Oc1ccnc(NC(=O)c2ccc(C3CN(C[C@@H](C)O)C3)cc2)c1` [Example 96], 6.4 nM.
Still for that read-out and setting: with `CCOCCOc1cc2c(ccn2C(=O)NC)cc1Oc1ccnc(NC(=O)c2ccc(C3CN(C[C@H](C)O)C3)cc2)c1` [Example 97] the figure was 3.6 nM.
For `CCOCCOc1cc2c(ccn2C(=O)NC)cc1Oc1ccnc(NC(=O)c2ccc(CN3CC[C@@H](O)C3)cc2)c1` [Example 106], the IC50 in assay [2] was determined as 726 nM.
With `CCOCCOc1cc2c(ccn2C(=O)NC)cc1Oc1ccnc(NC(=O)c2ccc(C3CCN(CC(C)(C)O)CC3)cc2)c1` [Example 109], the IC50 in assay [1] (read-out: SNU-16 (IC50 (nM))) amounted to 6.7 nM.
The same measure, in the same setting: with `CCOCCOc1cc2c(ccn2C(=O)NC)cc1Oc1ccnc(NC(=O)c2ccc(C3CCN(C(C)C)CC3)cc2)c1` [Example 110] the figure was 5.8 nM; with `CCOCCOc1cc2c(ccn2C(=O)NC)cc1Oc1ccnc(NC(=O)c2ccc(C3CCN(CC)CC3)cc2)c1` [Example 113], 5.7 nM.
For `CCOCCOc1cc2c(ccn2C(=O)NC)cc1Oc1ccnc(NC(=O)c2ccc(C3CCN(C)CC3)cc2)c1` [Example 114], the IC50 in assay [1] (read-out: SNU-16 (IC50 (nM))) was 4.7 nM.
As for `CNC(=O)n1ccc2cc(Oc3ccnc(NC(=O)c4ccc(CN5CCC[C@@H]5CO)cc4)c3)c(OCCCOC)cc21` [Example 116], in assay [2], the IC50 is 520 nM.
Consider `CNC(=O)n1ccc2cc(Oc3ccnc(NC(=O)c4ccc(CN5CC[C@H](O)C5)cc4)c3)c(OCCCOC)cc21` [Example 120], for which the IC50 in assay [2] was 457 nM.
Consider `CNC(=O)n1ccc2cc(Oc3ccnc(NC(=O)c4ccc(C5CN(C(C)C)C5)cc4)c3)c(OCCCOC)cc21` [Example 123], for which, in assay [1] (read-out: SNU-16 (IC50 (nM))), the IC50 worked out at 8.5 nM.
Regarding `CCN1CC(c2ccc(C(=O)Nc3cc(Oc4cc5ccn(C(=O)NC)c5cc4OCCCOC)ccn3)cc2)C1` [Example 124], the IC50 in assay [1] (read-out: SNU-16 (IC50 (nM))) stood at 8.9 nM.
`CNC(=O)n1ccc2cc(Oc3ccnc(NC(=O)c4ccc(C5CCN(C(C)C)CC5)cc4)c3)c(OCCCOC)cc21` [Example 127]: the IC50 in assay [2] was found to be 226 nM.
On to `CNC(=O)n1ccc2cc(Oc3ccnc(NC(=O)c4ccc(C5CCN(CCO)CC5)cc4)c3)c(OCCCOC)cc21` [Example 128], for which the IC50 in assay [1] (read-out: SNU-16 (IC50 (nM))) came out at 6.4 nM.
For `CCN1CCC(c2ccc(C(=O)Nc3cc(Oc4cc5ccn(C(=O)NC)c5cc4OCCCOC)ccn3)cc2)CC1` [Example 129], the IC50 in assay [1] (read-out: SNU-16 (IC50 (nM))) was 7.7 nM.
